Data reported in US9730940B2, “Purine inhibitors of human phosphatidylinositol 3-kinase delta” (priority 2012, dated 2017).

Assays:
[1] = molecular target: PI3K-alpha (Homo sapiens (Human), UniProt P42336); experiment: HTRF PI3K biochemical assay, alpha isoform; conditions: ratio PI3K-alpha IC50 value/PI3K-delta IC50 value
[2] = molecular target: PI3K-delta (Homo sapiens (Human), UniProt O00329); experiment: biochemical; conditions: PI3Kdelta IC50, HTRF biochemical assay; compound form screened given
Excerpt: HTRF PI3K Biochemical Assay to Measure Intrinsic Potency of Compound Inhibitors
The PI3-Kinase biochemical assays were developed to measure the intrinsic potency and compound dependent inhibition of the alpha, beta, delta, and gamma PI3K isoform enzymes. This assay was developed and further optimized from a kit produced by Upstate (Millipore catalog #33-047) and has been configured for HTS and SAR screening. Briefly, this procedure exploits the exquisite specificity and high affinity binding of enzyme reaction substrate phosphatidyl(3,4,5)triphosphate (PIP3) to the GRP1 pleckstrin homology (PH) domain to generate the signal. In the absence of PIP3, an HTRF (Homogeneous Time-Resolved Fluorescence energy transfer) complex is formed consisting of europium (Eu)-labeled anti-GST, GST tagged GRP1-PH domain, biotin-PIP3 and streptavidin conjugated APC. The native PIP3 produced by PI3-Kinase activity disrupts in a competitive manner the biotin-PIP3 from the PH domain, resulting in the loss of energy transfer (HTRF complex) and a decrease in the signal. The format of this assay is the same for all 4 isoforms of PI3K; the differences lie in the concentration of enzyme used to achieve robust assay window. The alpha, beta, and delta assays are run at 0.5, 1, and 0.3 nM enzymes and the gamma assay is run at 5 nM enzyme. The ATP concentration is 100 uM in the alpha, beta, and delta assays and 50 uM ATP in the gamma assay. All reactions are run at 5 uM PIP2.
Compounds are serially diluted (3-fold in 100% DMSO) across a 384-well polypropylene source plated from column 3 to column 12 and column 13 to column 22, to yield 10 concentration dose response for each test compound. Columns 1, 2, 23 and 24 contain either only DMSO or pharmacological known control inhibitor.
The PI3-Kinase biochemical assay was optimized using the HTRF kit provided by Upstate (Millipore). The assay kit contains six reagents: 1) 4× Reaction Buffer; 2) native PIP2 (substrate); 3) Stop (EDTA); 4) Detection Mix A (Streptavidin-APC); 5) Detection Mix B (Eu-labeled Anti-GST plus GST-tagged PH-domain); 6) Detection Mix C.
PI3Kinase Reaction Buffer is prepared by dilution the stock 1:4 with de-ionized water. […] Enzyme addition and compound pre-incubation are initiated by the addition of 1.25 ul of PI3K (at twice its final concentration) in the 1× reaction buffer to all wells using a BioRaptor. Plates are incubated at room temperature for 15 minutes. Reactions are initiated by addition of 1.25 ul of 2× substrate solution (PIP2 and ATP in 1× reaction buffer) using BioRaptor. Plates are incubated in humidified chamber at room temperature for one hour. Reactions are quenched by addition of 0.625 uL of stop solution to all wells using the BioRaptor. The quenched reactions are then processed to detect product formation by adding 0.625 uL of Detection Solution to all wells using the BioRaptor (Detection mix C, Detection Mix A, and Detection Mix B combined together in an 18:1:1 ratio prepared 2 hours prior to use).
The loss of the HTRF signal is due to the displacement of biotinylated-PIP3 from the PH domain by the PI3K-dependent conversion of PIP2 to PIP3. […] All data were calculated using the ratio of acceptor (APC) to donor (Europium) fluorescence in each well of the assay plate. […] An IC50 was then calculated fitting the % inhibition data to the equation: % inhibition=min+(Max−min)/1+([inhibitor]/IC50)^n) where min is the % inhibition […], max is the signal in DMSO control, and n is the Hill slope.

PI3K-delta, sequence (O00329 whole entry, looked up): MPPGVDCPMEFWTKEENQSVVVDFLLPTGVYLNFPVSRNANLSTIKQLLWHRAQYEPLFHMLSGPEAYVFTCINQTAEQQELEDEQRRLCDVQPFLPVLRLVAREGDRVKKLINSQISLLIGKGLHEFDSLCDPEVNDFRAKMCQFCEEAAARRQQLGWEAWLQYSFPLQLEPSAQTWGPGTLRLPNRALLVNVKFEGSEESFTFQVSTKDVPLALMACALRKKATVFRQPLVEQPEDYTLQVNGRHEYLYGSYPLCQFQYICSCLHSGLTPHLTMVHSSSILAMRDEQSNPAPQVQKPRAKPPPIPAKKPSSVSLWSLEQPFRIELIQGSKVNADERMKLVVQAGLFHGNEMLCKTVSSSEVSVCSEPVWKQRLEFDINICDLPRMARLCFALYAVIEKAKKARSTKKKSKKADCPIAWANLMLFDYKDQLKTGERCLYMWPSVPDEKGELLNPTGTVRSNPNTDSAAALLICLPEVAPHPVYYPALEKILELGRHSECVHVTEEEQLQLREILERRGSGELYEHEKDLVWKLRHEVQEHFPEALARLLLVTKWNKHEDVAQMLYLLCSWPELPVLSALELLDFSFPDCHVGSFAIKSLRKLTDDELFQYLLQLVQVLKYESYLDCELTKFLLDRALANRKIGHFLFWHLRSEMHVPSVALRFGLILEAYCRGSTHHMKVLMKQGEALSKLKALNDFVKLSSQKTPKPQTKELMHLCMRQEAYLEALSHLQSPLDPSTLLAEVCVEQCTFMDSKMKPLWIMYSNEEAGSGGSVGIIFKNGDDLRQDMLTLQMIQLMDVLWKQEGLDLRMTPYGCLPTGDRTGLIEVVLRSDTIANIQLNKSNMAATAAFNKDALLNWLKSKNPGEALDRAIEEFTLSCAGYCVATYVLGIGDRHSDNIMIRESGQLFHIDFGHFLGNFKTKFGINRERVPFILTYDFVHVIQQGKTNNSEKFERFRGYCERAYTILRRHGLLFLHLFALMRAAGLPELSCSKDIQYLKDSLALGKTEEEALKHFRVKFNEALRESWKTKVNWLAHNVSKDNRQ
PI3K-delta, sequence (P27986 whole entry partner, looked up): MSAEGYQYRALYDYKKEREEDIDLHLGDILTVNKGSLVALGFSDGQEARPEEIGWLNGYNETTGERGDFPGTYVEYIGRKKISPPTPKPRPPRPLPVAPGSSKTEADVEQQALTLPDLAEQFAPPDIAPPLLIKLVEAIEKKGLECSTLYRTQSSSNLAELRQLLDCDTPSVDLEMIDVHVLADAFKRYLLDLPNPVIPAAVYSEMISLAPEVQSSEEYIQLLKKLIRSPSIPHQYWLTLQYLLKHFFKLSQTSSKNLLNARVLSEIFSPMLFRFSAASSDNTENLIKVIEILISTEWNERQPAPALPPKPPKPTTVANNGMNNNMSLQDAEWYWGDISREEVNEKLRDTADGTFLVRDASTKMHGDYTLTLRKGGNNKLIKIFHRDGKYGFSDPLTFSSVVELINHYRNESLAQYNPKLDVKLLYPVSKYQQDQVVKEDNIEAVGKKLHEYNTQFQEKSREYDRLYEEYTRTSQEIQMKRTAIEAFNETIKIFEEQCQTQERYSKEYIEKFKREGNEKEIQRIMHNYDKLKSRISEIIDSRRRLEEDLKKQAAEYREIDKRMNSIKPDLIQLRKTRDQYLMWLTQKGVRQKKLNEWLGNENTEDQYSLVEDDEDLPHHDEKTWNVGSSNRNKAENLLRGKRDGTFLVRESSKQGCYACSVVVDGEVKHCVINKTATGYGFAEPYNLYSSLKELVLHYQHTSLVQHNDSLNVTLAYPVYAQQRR
PI3K-alpha, sequence (P42336 whole entry, looked up, canonical isoform): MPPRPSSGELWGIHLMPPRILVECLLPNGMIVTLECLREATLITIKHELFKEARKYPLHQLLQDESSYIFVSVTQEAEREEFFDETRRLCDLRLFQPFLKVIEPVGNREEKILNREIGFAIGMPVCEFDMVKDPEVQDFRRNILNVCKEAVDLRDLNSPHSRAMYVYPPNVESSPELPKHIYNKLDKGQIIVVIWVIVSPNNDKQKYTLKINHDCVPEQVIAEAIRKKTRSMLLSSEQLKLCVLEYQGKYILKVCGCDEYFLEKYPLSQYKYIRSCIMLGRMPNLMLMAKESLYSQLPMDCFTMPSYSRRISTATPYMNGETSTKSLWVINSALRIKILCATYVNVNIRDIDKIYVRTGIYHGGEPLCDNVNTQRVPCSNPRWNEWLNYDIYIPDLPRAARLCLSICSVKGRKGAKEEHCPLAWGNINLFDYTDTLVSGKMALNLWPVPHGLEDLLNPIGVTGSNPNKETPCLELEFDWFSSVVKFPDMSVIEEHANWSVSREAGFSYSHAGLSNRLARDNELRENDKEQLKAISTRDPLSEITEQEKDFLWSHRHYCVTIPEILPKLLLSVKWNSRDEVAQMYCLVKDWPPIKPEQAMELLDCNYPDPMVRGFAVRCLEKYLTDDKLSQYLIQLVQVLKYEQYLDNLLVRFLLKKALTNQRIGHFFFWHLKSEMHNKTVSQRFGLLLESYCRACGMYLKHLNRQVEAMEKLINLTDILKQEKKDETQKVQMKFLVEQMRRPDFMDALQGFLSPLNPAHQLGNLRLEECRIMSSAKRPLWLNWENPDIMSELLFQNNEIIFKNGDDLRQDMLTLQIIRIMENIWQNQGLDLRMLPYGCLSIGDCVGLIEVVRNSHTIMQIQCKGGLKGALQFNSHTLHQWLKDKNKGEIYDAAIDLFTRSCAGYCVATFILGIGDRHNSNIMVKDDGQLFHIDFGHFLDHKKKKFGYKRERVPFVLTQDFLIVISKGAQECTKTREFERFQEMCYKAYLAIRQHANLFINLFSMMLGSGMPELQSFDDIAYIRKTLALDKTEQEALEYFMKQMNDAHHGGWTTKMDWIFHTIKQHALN
PI3K-alpha, sequence (P27986 whole entry partner, looked up, canonical isoform): as the sequence (P27986 whole entry partner, looked up) above

Row | SMILES | Relative Selectivity versus PI3Kalpha [1] | IC50 [2] [nM]
1 | CCn1c(-c2cnc(C)nc2)nc2c(O[C@@H]3CN(C(=O)C4CC4)CC3(C)C)ncnc21 (racemic) [Compound 3-62, racemic-6-{[1-(cyclopropylcarbonyl)-4,4-dimethylpyrrolidin-3-yl]oxy}-9-ethyl-8-(2-methylpyrimidin-5-yl)-9H-purine] | >10 | 2.3
2 | CCn1c(-c2cnc(C)nc2)nc2c(O[C@H]3CCN(C(=O)C4CC45CCCC5)C3)ncnc21 (single isomer, unassigned) [Compound 2-122, 9-ethyl-8-(2-methylpyrimidin-5-yl)-6-{[(3S)-1-((R or S)-spiro[2.4]hept-1-ylcarbonyl)pyrrolidin-3-yl]oxy}-9H-purine] | >10 | 16
3 | CCn1c(-c2cnc(C)nc2)nc2c(O[C@H]3CCN(C(=O)C4CC45CCCC5)C3)ncnc21 (single isomer, unassigned) [Compound 2-123, 9-ethyl-8-(2-methylpyrimidin-5-yl)-6-{[(3S)-1-((R or S)-spiro[2.4]hept-1-ylcarbonyl)pyrrolidin-3-yl]oxy}-9H-purine] | >10 | < 1
4 | CCn1c(-c2cnc(C)nc2)nc2c(O[C@H]3CCN(C(=O)N4CCC4C)C3)ncnc21 (single isomer, unassigned) [Compound 5-15, 9-ethyl-6-({(3S)-1-[((2R or 2S)-methylazetidin-1-yl)carbonyl]pyrrolidin-3-yl}oxy)-8-(2-methylpyrimidin-5-yl)-9H-purine] | >10 | 6.2
5 | CCn1c(-c2cnc(C)nc2)nc2c(O[C@H]3CCN(C(=O)N4CCC4C)C3)ncnc21 (single isomer, unassigned) [Compound 5-16, 9-ethyl-6-({(3S)-1-[((2R or 2S)-methylazetidin-1-yl)carbonyl]pyrrolidin-3-yl}oxy)-8-(2-methylpyrimidin-5-yl)-9H-purine] | >10 | 16
6 | CCC(=O)N1CC[C@H](Oc2ncnc3c2nc(CC(C)C)n3CC)C1 [Compound 14-3, 9-ethyl-8-(2-methylpropyl)-6-{[(3S)-1-propanoylpyrrolidin-3-yl]oxy}-9H-purine] | >10 | –
7 | CCC(=O)N1CC[C@H](Oc2ncnc3c2nc(CC(C)C)n3C)C1 [Compound 14-4, 9-methyl-8-(2-methylpropyl)-6-{[(3S)-1-propanoylpyrrolidin-3-yl]oxy}-9H-purine] | >10 | –
8 | CCC(=O)N1CC[C@H](Oc2ncnc3c2nc(C(F)F)n3CC)C1 [Compound 14-5, 8-(difluoromethyl)-9-ethyl-6-{[(3S)-1-propanoylpyrrolidin-3-yl]oxy}-9H-purine] | >10 | –
9 | CCC(=O)N1CC[C@H](Oc2ncnc3c2nc(C(F)(F)F)n3CC)C1 [Compound 14-6, 9-ethyl-6-{[(3S)-1-propanoylpyrrolidin-3-yl]oxy}-8-(trifluoromethyl)-9H-purine] | >10 | –
10 | CCC(=O)N1CC[C@H](Oc2ncnc3c2nc(C(F)(F)F)n3C)C1 [Compound 14-7, 9-methyl-6-{[(3S)-1-propanoylpyrrolidin-3-yl]oxy}-8-(trifluoromethyl)-9H-purine] | >10 | –
11 | CCn1c(C(=O)NCC(F)(F)F)nc2c(O[C@H]3CCN(C(=O)OC(C)(C)C)C3)ncnc21 [Compound 15-1, tert-butyl (3S)-3-({9-ethyl-8-[(2,2,2-trifluoroethyl)carbamoyl]-9H-purin-6-yl}oxy)pyrrolidine-1-carboxylate] | >10 | –
12 | CCn1c(C(=O)NCC(F)(F)F)nc2c(O[C@H]3CCN(C(=O)N4CC(OC)C4)C3)ncnc21 [Compound 15-2, (S)-9-ethyl-6-((1-(3-methoxyazetidine-1-carbonyl)pyrrolidin-3-yl)oxy)-N-(2,2,2-trifluoroethyl)-9H-purine-8-carboxamide] | >10 | –
13 | CCn1c(C(=O)NCC2CC2)nc2c(O[C@H]3CCN(C(=O)OC(C)(C)C)C3)ncnc21 [Compound 15-3, tert-butyl (3S)-3-({8-[(cyclopropylmethyl)carbamoyl]-9-ethyl-9H-purin-6-yl}oxy)pyrrolidine-1-carboxylate] | >10 | –
14 | CCn1c(C(=O)NC2CCCCC2)nc2c(O[C@H]3CCN(C(=O)OC(C)(C)C)C3)ncnc21 [Compound 15-4, tert-butyl (3S)-3-{[8-(cyclohexylcarbamoyl)-9-ethyl-9H-purin-6-yl]oxy}pyrrolidine-1-carboxylate] | >10 | –
15 | CCNC(=O)c1nc2c(O[C@H]3CCN(C(=O)OC(C)(C)C)C3)ncnc2n1CC [Compound 15-5, tert-butyl (3S)-3-{[9-ethyl-8-(ethylcarbamoyl)-9H-purin-6-yl]oxy}pyrrolidine-1-carboxylate] | >10 | –
